Assay results as given in patent US10376520B2, “Methods for the treatment of cardiovascular disorders” (Galapagos NV, priority 2015, dated 2019).

Test system: Subjects With Active Crohn's Disease
Assay: LDL determination, Study 5 (Crohn's disease)
Format: in vivo, human
Settings: for [LDL] Median CFB - 10 weeks results: 200 mg q.d. (N = 130)
Text: Double-Blind, Randomized, Placebo-Controlled, Multi-Centre Study to Investigate the Efficacy and Safety of Compound 1 in Subjects With Active Crohn's Disease With Evidence of Mucosal Ulceration.
This is a double-blind, randomized, placebo-controlled, multi-centre Phase 2 study to investigate the efficacy and safety of Compound 1 administered once daily for the treatment of active CD with evidence of mucosal ulceration. The pharmacokinetics (including a PK substudy) and pharmacodynamics of Compound 1 and metabolite in CD will also be characterised.
A total of 180 eligible subjects will be randomized to receive Compound 1 or placebo in addition to their stable background treatment (eg, corticosteroids, aminosalicylates, or CD-related antibiotics). The study will consist of 2 parts, with total treatment duration of 20 weeks. Randomization in Part 1 will be stratified according the subject's previous anti-TNF exposure/response, CRP level at Screening, and oral corticosteroid use at visit Day −1.
After the first 10 weeks of treatment in Part 1, patients will be re-randomized for Part 2 as shown in the diagram below and will be stratified according to the subject's clinical response, previous anti-TNF exposure/response, and oral corticosteroid use at visit Day −1.
The following assays were conducted at Eurofins Global Central Laboratory, Bergschot 71, 4817 PA Breda, The Netherlands, and at Quest Diagnostics, Clinical Trials, Quest House, 125-135 Staines Road, Hounslow, Middlesex, TW3 3JB, United Kingdom. The assays for Study 5 were performed at BARC Europe, 3B, Industrie Park, Zwijnaarde, B-9052 Ghent, Belgium.
The determination of [LDL]-cholesterol is made using an automated method taking advantage of the selective micellary solubilization of [LDL]-cholesterol by a nonionic detergent and the interaction of a sugar compound and lipoproteins (VLDL and chylomicrons).
When a detergent is included in the enzymatic method for cholesterol determination (cholesterol esterase, cholesterol oxidase coupling reaction), the relative reactivities of cholesterol in the lipoprotein fractions increase in this order: [HDL]<chylomicrons <VLDL <[LDL]. In the presence of Mg^2+, a sugar compound markedly reduces the enzymatic reaction of the cholesterol measurement in VLDL and chylomicrons. The combination of a sugar compound with detergent enables the selective determination of [LDL]-cholesterol in serum. (Friedewald et al., 1972; Rifai et al., 1992)
Homogeneous enzymatic colorimetric assay.
In the presence of peroxidase, the hydrogen peroxide generated reacts with 4-aminoantipyrine and Sodium N-(2-hydroxy-3-sulfopropyl)-3,5-dimethoxyaniline (HSDA) to form a purple-blue dye.
The color intensity of this dye is directly proportional to the cholesterol concentration and is measured photometrically.
Human serum and plasma samples [LDL] determination was done on a Roche/Hitachi Cobas c 701/702 system which automatically calculate the analyte concentration of each sample. Samples containing precipitates are centrifuged before performing the assay.

[1] = 200 mg q.d. continued to week 20, week 2
[2] = 200 mg q.d. continued to week 20, week 4
[3] = 200 mg q.d. continued to week 20, week 6
[4] = 200 mg q.d. continued to week 20, week 10
[5] = 200 mg q.d. continued to week 20, week 12
[6] = 200 mg q.d. continued to week 20, week 16
[7] = 200 mg q.d. continued to week 20, week 20
[8] = 200 mg q.d. week 0 to 10, then 100 mg q.d. (N = 30), week 2
[9] = 200 mg q.d. week 0 to 10, then 100 mg q.d. (N = 30), week 4
[10] = 200 mg q.d. week 0 to 10, then 100 mg q.d. (N = 30), week 6
[11] = 200 mg q.d. week 0 to 10, then 100 mg q.d. (N = 30), week 10
[12] = 200 mg q.d. week 0 to 10, then 100 mg q.d. (N = 30), week 12
[13] = 200 mg q.d. week 0 to 10, then 100 mg q.d. (N = 30), week 16
[14] = 200 mg q.d. week 0 to 10, then 100 mg q.d. (N = 30), week 20
[15] = 200 mg q.d. week 0 to 10, then placebo (N = 23), week 2
[16] = 200 mg q.d. week 0 to 10, then placebo (N = 23), week 4
[17] = 200 mg q.d. week 0 to 10, then placebo (N = 23), week 6
[18] = 200 mg q.d. week 0 to 10, then placebo (N = 23), week 10
[19] = 200 mg q.d. week 0 to 10, then placebo (N = 23), week 12
[20] = 200 mg q.d. week 0 to 10, then placebo (N = 23), week 16
[21] = 200 mg q.d. week 0 to 10, then placebo (N = 23), week 20
[22] = 200 mg q.d. week 0 to 10, to 100 mg q.d. week 10 to 20, week 2
[23] = 200 mg q.d. week 0 to 10, to 100 mg q.d. week 10 to 20, week 4
[24] = 200 mg q.d. week 0 to 10, to 100 mg q.d. week 10 to 20, week 6
[25] = 200 mg q.d. week 0 to 10, to 100 mg q.d. week 10 to 20, week 10
[26] = 200 mg q.d. week 0 to 10, to 100 mg q.d. week 10 to 20, week 12

O=C(Nc1nc2cccc(-c3ccc(CN4CCS(=O)(=O)CC4)cc3)n2n1)C1CC1 [Compound 1, cyclopropanecarboxylic acid {5-[4-(1,1-dioxo-thiomorpholin-4-ylmethyl)-phenyl]-[1,2,4]triazolo[1,5-a]pyridin-2yl}-amide]
[LDL] Median CFB - 10 weeks results (week 2): -0.050 mmol/L | [LDL] Median CFB - 10 weeks results (week 4): -0.050 mmol/L | [LDL] Median CFB - 10 weeks results (week 6): 0.025 mmol/L | [LDL] Median CFB - 10 weeks results (week 10): 0.160 mmol/L | [LDL] Mean CFB - 20 weeks results [1]: 3.14% | [LDL] Median CFB - 20 weeks results [1]: −2.51% | [LDL] Mean CFB - 20 weeks results [2]: 1.21% | [LDL] Median CFB - 20 weeks results [2]: −2.16% | [LDL] Mean CFB - 20 weeks results [3]: 0.73% | [LDL] Median CFB - 20 weeks results [3]: −0.61% | [LDL] Mean CFB - 20 weeks results [4]: 14.77% | [LDL] Median CFB - 20 weeks results [4]: 8.26% | [LDL] Mean CFB - 20 weeks results [5]: 9.98% | [LDL] Median CFB - 20 weeks results [5]: 5.42% | [LDL] Mean CFB - 20 weeks results [6]: 12.35% | [LDL] Median CFB - 20 weeks results [6]: 7.42% | [LDL] Mean CFB - 20 weeks results [7]: 11.56% | [LDL] Median CFB - 20 weeks results [7]: 6.93% | [LDL] Mean CFB - 20 weeks results [8]: -0.02 mmol/L | [LDL] Median CFB - 10 weeks results 20 weeks results [8]: -0.05 mmol/L | [LDL] Mean CFB - 20 weeks results [9]: 0.00 mmol/L | [LDL] Median CFB - 10 weeks results 20 weeks results [9]: -0.10 mmol/L | [LDL] Mean CFB - 20 weeks results [10]: 0.00 mmol/L | [LDL] Median CFB - 10 weeks results 20 weeks results [10]: 0.04 mmol/L | [LDL] Mean CFB - 20 weeks results [11]: 0.10 mmol/L | [LDL] Median CFB - 10 weeks results 20 weeks results [11]: 0.17 mmol/L | [LDL] Mean CFB - 20 weeks results [12]: 0.10 mmol/L | [LDL] Median CFB - 10 weeks results 20 weeks results [12]: 0.19 mmol/L | [LDL] Mean CFB - 20 weeks results [13]: 0.01 mmol/L | [LDL] Median CFB - 10 weeks results 20 weeks results [13]: -0.05 mmol/L | [LDL] Mean CFB - 20 weeks results [14]: 0.01 mmol/L | [LDL] Median CFB - 10 weeks results 20 weeks results [14]: 0.04 mmol/L | [LDL] Mean CFB - 20 weeks results [15]: 0.037 mmol/L | [LDL] Median CFB - 10 weeks results 20 weeks results [15]: 0.02 mmol/L | [LDL] Mean CFB - 20 weeks results [16]: -0.017 mmol/L | [LDL] Median CFB - 10 weeks results 20 weeks results [16]: 0.05 mmol/L | [LDL] Mean CFB - 20 weeks results [17]: 0.085 mmol/L | [LDL] Median CFB - 10 weeks results 20 weeks results [17]: 0.09 mmol/L | [LDL] Mean CFB - 20 weeks results [18]: 0.077 mmol/L | [LDL] Median CFB - 10 weeks results 20 weeks results [18]: 0.03 mmol/L | [LDL] Mean CFB - 20 weeks results [19]: 0.105 mmol/L | [LDL] Median CFB - 10 weeks results 20 weeks results [19]: 0.12 mmol/L | [LDL] Mean CFB - 20 weeks results [20]: 0.222 mmol/L | [LDL] Median CFB - 10 weeks results 20 weeks results [20]: 0.08 mmol/L | [LDL] Mean CFB - 20 weeks results [21]: 0.205 mmol/L | [LDL] Median CFB - 10 weeks results 20 weeks results [21]: 0.11 mmol/L | [LDL] Mean CFB - 20 weeks results [22]: 2.17% | [LDL] Median CFB - 20 weeks results [22]: −1.37% | [LDL] Mean CFB - 20 weeks results [23]: 4.07% | [LDL] Median CFB - 20 weeks results [23]: −1.98% | [LDL] Mean CFB - 20 weeks results [24]: 2.59% | [LDL] Median CFB - 20 weeks results [24]: 1.25% | [LDL] Mean CFB - 20 weeks results [25]: 5.40% | [LDL] Median CFB - 20 weeks results [25]: 7.46% | [LDL] Mean CFB - 20 weeks results [26]: 5.91% | [LDL] Median CFB - 20 weeks results [26]: 6.39%
